Non-standard residues stand in square brackets, D forms with d. Residues, ends and D or L forms follow the SMILES beside them. Sar = CNCC(=O)O
Biological target: Solute carrier family 15 member 2 (Homo sapiens) (UniProt Q16348)
Assay: SLC15A2 dipeptide substrate-evoked depolarization, dose response, membrane potential dye, HEK-293 overexpressing cells, pH 6.8/7.4 (AID 1794819)
Conditions: HEK-293 SLC15A2 OE, FLIPR membrane potential dye, as substrate

Chain of Solute carrier family 15 member 2 (Homo sapiens) (Q16348 whole entry, looked up): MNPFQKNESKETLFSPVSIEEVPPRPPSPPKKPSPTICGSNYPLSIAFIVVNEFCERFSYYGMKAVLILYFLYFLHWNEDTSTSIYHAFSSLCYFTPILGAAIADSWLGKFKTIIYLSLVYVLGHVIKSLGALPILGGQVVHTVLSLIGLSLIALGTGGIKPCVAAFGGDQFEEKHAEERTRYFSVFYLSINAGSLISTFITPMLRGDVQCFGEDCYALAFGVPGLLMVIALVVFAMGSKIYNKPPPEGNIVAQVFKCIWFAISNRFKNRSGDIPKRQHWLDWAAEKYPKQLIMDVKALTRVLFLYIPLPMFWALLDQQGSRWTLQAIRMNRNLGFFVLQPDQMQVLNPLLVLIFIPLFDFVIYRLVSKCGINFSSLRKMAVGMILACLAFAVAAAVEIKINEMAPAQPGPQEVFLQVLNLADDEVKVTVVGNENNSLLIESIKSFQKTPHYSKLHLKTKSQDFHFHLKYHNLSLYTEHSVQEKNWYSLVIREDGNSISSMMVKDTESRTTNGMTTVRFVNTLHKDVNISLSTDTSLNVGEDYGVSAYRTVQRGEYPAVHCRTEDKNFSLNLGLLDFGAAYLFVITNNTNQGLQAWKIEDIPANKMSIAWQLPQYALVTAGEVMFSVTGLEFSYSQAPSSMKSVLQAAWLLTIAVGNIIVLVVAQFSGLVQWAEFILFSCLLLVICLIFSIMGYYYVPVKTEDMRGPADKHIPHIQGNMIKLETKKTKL

| SMILES | EC50 (pH 6.8) [µM] | EC50 (pH 7.4) [µM] |
| --- | --- | --- |
| NCCC(=O)N[C@@H](Cc1cnc[nH]1)C(=O)O | 28 | – |
| CN(CC(=O)O)C(=O)CN (H-Gly-[Sar]-OH) | 39 | 123 |
